What was measured:
TS217 cells [1] = test system: TS217 cells
Protocol: To determine the effect of overexpression of wild-type alpha-synuclein on cell viability using the stable, inducible system, TS217 cells were treated with 0.1 μg/mL tetracycline for three to six days to induce expression of alpha-synuclein. The relative viability of the cells was assessed at one day intervals (day 3, day 4, day 5, and day 6) by measuring the cellular ATP level in cell lysates using a ViaLight® Plus Bioassay kit (Cambrex, Rockland, Me.). Relative cell viability was calculated as the ratio of induced cells to control cells (cells not treated with tetracycline), as an indication of alpha-synuclein-induced cytotoxicity (see FIG. 3).
To determine whether the effect of tetracycline on cell viability was concentration-dependent, TS217 cells grown in 96 well plates were incubated with different concentrations of tetracycline for six days. Following treatment, each of the experimental cell groups were lysed and the cellular ATP measured as described above. Media with the vehicle alone (no tetracycline) served as control (FIG. 5). […]

TS217 cells [2] = experiment: Calcein AM staining of live cells; assay type: cell-based; details: Homo sapiens, 120 h; 0.1 μg/mL tetracycline, 5 days; read-out: number of viable cells decreased (calcein-positive cells)
Protocol: The cytotoxicity of alpha-synuclein overexpression in TS217 cells was also assessed using the membrane-permeable dye, calcein AM. TS217 cells were plated on glass tissue culture chamber slides coated with poly-L-lysine and cultured in the absence (Control) or presence (Induced) of 0.1 μg/mL tetracycline for 5 days to induce alpha-synuclein expression. Cells were treated with 2 μM calcein AM and the fluorescence of enzyme-activated calcein AM (in live cells) was visualized using a fluorescent microscope (Olympus, Center Valley, Pa.) fitted with a digital camera controlled by the Metamorph program (Universal Imaging, West Chester, Pa.). Calcein-positive cells were quantitated using Metamorph software (Universal Imaging, West Chester, Pa.) (FIG. 4A).

TS217 cells [3] = experiment: GM130 immunostaining of intact Golgi; assay type: cell-based, human; details: 0.1 μg/mL tetracycline, six day induction
Protocol: TS217 cells were plated on glass tissue culture chamber slides coated with poly-L-lysine and incubated for six days in the absence (Control) or presence of 0.1 μg/mL tetracycline (Induced) to induce alpha-synuclein expression. Following treatment, cells were fixed with 4% paraformaldehyde supplemented with 4% sucrose in phosphate-buffered saline, permeabilized with 0.2% triton in PBS, and stained with antibodies specific for the cis-Golgi tethering protein GM130 (FIG. 6A). The number of cells containing intact Golgi was reduced by almost 80% following the six day induction of alpha-synuclein (FIG. 6B).

SMILES	Relative cell viability decreased (ratio of induced cells to control cells) (TS217 cells [1]; 0.1 μg/mL tetracycline, from day 3 to day 6, no other toxicity-inducing agents)	cytotoxicity at 0.1 µg/mL (TS217 cells [2]) [%]	number of cells containing intact Golgi reduced (TS217 cells [3]) [%]	Relative viability (ATP, ratio of induced to control), effect on alpha-synuclein-induced toxicity (TS217 cells [1]; 0.08, 0.15, 0.3 μM compound, with tetracycline induction for 5 days, FIG. 9)
CN(C)[C@@H]1C(O)=C(C(N)=O)C(=O)[C@@]2(O)C(O)=C3C(=O)c4c(O)cccc4[C@@](C)(O)[C@H]3C[C@@H]12 [tetracycline]	over 50%	~60	~80	–
CC(C)(C)n1nc(-c2ccc(Cl)cc2)c2c(N)ncnc21 [Cmp J, 1-t-Butyl-3-(4-chloro-phenyl)-1H-pyrazolo[3,4-d]pyrimidin-4-ylamine]	–	–	–	rescue of alpha-synuclein-induced toxicity

From patent publication US20100122362A1, “CELLS EXPRESSING ALPHA-SYNUCLEIN AND USES THEREFOR” (priority 2006, published 2010)
